Measured values reported in patent US4198506A, “2-Carboxyalkyl-2,3-dihydro-6-mercapto-s-triazolo[4,3-b]-pyridazin-3-ones” (Bristol-Myers Company, priority 1979, dated 1980).
Converted amounts (≈) assume the structure as drawn. “And” between values parts separate entries of the source, which are not always exact repeats. Equal values may be shown once. Read-outs that look alike come from different tables or passages of the source.

Tests used:
Enterob. cloacae = experiment: In vitro antibacterial activity (Steers' agar dilution MIC); type: cell-based; settings: read-out: MIC
Enterobacter (sensitive) = experiment: In vitro activity (geometric mean MIC, serial dilution); type: cell-based; settings: read-out: Geometric Mean MIC
[1] = system: Proteus (indole +, cephalosporinase +); experiment: as above; type: cell-based; settings: 5 strains; Mueller-Hinton agar, inoculum 10^4 dilution; MIC cutoff 200 mcg./ml.; read-out: Geometric Mean MIC
Pr. morganii = experiment: In vitro antibacterial activity (Steers' agar dilution MIC); type: cell-based; settings: Morganella morganii, read-out: MIC
E. coli = experiment: as above; type: cell-based; settings: Escherichia coli
Source text: (§1) In vitro Antibacterial Activity of BB-S493 Compared with
(§2) BB-S479 and Cefamandole (Determined by Steers' Agar Dilu-
(§3) tion Method on Mueller-Hinton Agar Plate)
(§4) In vitro antibacterial activity of BB-S 525 compared with
(§5) BB-S 479 and cefamandole (determined by Steers' agar dilution
(§6) method on Mueller-Hinton agar plate)

Kl. pneumoniae = experiment: as above; type: cell-based; settings: Klebsiella pneumoniae
Source text: as §1, §2, §3, §4, §5, §6

Sal. typhosa = experiment: as above; type: cell-based
Source text: as §1, §2, §3, §4, §5, §6

Shig. flexneri = experiment: as above; type: cell-based
Source text: as §1, §2, §3, §4, §5, §6

Shig. sonnei = experiment: as above; type: cell-based; settings: Shigella sonnei
Source text: as §1, §2, §3, §4, §5, §6

S. aureus = experiment: as above; type: cell-based; settings: Staphylococcus aureus
Source text: as §1, §2, §3, §4, §5, §6

E. coli (sensitive) = experiment: In vitro activity (geometric mean MIC, serial dilution); type: cell-based; settings: Escherichia coli; 13 strains; Mueller-Hinton agar, inoculum 10^4 dilution; MIC cutoff 200 mcg./ml.; read-out: Geometric Mean MIC
[2] = system: Enterobacter (Cephalosporinase +); experiment: as above; type: cell-based; settings: 7 strains, Mueller-Hinton agar, inoculum 10^4 dilution, MIC cutoff 200 mcg./ml.
B. anthracis = experiment: microbe, parasite or virus in culture; type: cell-based; settings: Bacillus anthracis
Providencia sp. = experiment: In vitro activity (geometric mean MIC, serial dilution); type: cell-based; settings: 5 strains, Mueller-Hinton agar, inoculum 10^4 dilution, MIC cutoff 200 mcg./ml., read-out: Geometric Mean MIC
S. aureus (sensitive) = experiment: as above; type: cell-based; settings: Staphylococcus aureus, read-out: Geometric Mean MIC
[3] = system: E. coli (Penicillinase +); experiment: as above; type: cell-based; settings: Escherichia coli; 7 strains; Mueller-Hinton agar, inoculum 10^4 dilution; MIC cutoff 200 mcg./ml.; read-out: Geometric Mean MIC
Pr. mirabilis = experiment: In vitro antibacterial activity (Steers' agar dilution MIC); type: cell-based; settings: Proteus mirabilis, read-out: MIC
Proteus (indole +) = experiment: In vitro activity (geometric mean MIC, serial dilution); type: cell-based; settings: 14 strains; Mueller-Hinton agar, inoculum 10^4 dilution; MIC cutoff 200 mcg./ml.; read-out: Geometric Mean MIC
D. pneumoniae = experiment: as above; type: cell-based; settings: Streptococcus pneumoniae; 9 strains; Mueller-Hinton agar, inoculum 10^4 dilution; MIC cutoff 200 mcg./ml.
Shig. dysenteriae = experiment: In vitro antibacterial activity (Steers' agar dilution MIC); type: cell-based; settings: Shigella dysenteriae
Klebsiella sp. = experiment: In vitro activity (geometric mean MIC, serial dilution); type: cell-based; settings: 12 strains, Mueller-Hinton agar, inoculum 10^4 dilution, MIC cutoff 200 mcg./ml., read-out: Geometric Mean MIC
S. marcescens = experiment: as above; type: cell-based; settings: Serratia marcescens; 16 strains; Mueller-Hinton agar, inoculum 10^4 dilution; MIC cutoff 200 mcg./ml.; read-out: Geometric Mean MIC
[4] = system: S. aureus penicillinase+); experiment: as above; type: cell-based; settings: Staphylococcus aureus, read-out: Geometric Mean MIC
S. aureus Smith = experiment: In vivo activity (Mice, sc); settings: several determinations listed
Source text: |In vivo Activity of BB-[…] and Related Compounds (Mice, sc) | (PD50 (mgm./kg.)

Ps. aeruginosa = experiment: In vitro antibacterial activity (Steers' agar dilution MIC); type: cell-based

Work on `CNCc1ccccc1CC(=O)N[C@@H]1C(=O)N2C(C(=O)O)=C(CSc3ccc4nn(CC(=O)O)c(=O)n4n3)CS[C@H]12` [BB-S479, 7-[o-(Methylaminomethyl)phenylacetamido]-3-(2-carboxymethyl-2,3-dihydro-s-triazolo[4,3-b]pyridazin-3-on-6-ylthiomethyl)-3-cephem-4-carboxylic Acid] yielded an MIC (Enterob. cloacae; table 2 (BB-S493), Enterob. cloacae A9656) of 1.6 µg/mL (≈ 2.67 µM), an MIC (Enterob. cloacae; table 4 (BB-S 525), Enterob. cloacae) of 3.1 µg/mL (≈ 5.17 µM) and an MIC (Enterobacter (sensitive)) of 0.5 µg/mL (≈ 0.834 µM). The MIC [1] was 4.8 µg/mL (≈ 8 µM), the MIC (Pr. morganii; table 2 (BB-S493), Pr. morganii A9553) was greater than 100 µg/mL and the MIC (Pr. morganii; table 2 (BB-S493), Pr. morganii A20031) was 0.1 µg/mL (≈ 0.167 µM). The MIC (Pr. morganii; table 4 (BB-S 525), Pr. morganii, 1st line) was greater than 100 µg/mL, the MIC (Pr. morganii; table 4 (BB-S 525), Pr. morganii, 2nd line) was 0.2 µg/mL (≈ 0.334 µM) and the MIC (E. coli; ATCC8739, table 2 (BB-S493), E. coli ATCC 8739, read-out: MIC) was 0.05 µg/mL (≈ 0.0834 µM). For the same compound, the MIC (E. coli; ATCC8739, table 4 (BB-S 525), E. coli ATCC 8739) was 3.1 µg/mL (≈ 5.17 µM), the MIC (E. coli; table 2 (BB-S493), E. coli A9660, read-out: MIC) was 0.05 µg/mL (≈ 0.0834 µM) and the MIC (E. coli; table 2 (BB-S493), E. coli A15147, read-out: MIC) was 3.1 µg/mL (≈ 5.17 µM). For the same compound, the MIC (E. coli; table 2 (BB-S493), E. coli A15810, read-out: MIC) was 0.1 µg/mL (≈ 0.167 µM), the MIC (E. coli; table 2 (BB-S493), E. coli BX-1373, read-out: MIC) was 0.2 µg/mL (≈ 0.334 µM) and the MIC (E. coli; table 2 (BB-S493), E. coli Juhl A15119, read-out: MIC) was 0.1 µg/mL (≈ 0.167 µM). For the same compound, the MIC (E. coli; table 2 (BB-S493), E. coli NIHJ, read-out: MIC) was 0.05 µg/mL (≈ 0.0834 µM), the MIC (E. coli; table 4 (BB-S 525), E. coli BX-1373, read-out: MIC) was 0.2 µg/mL (≈ 0.334 µM) and the MIC (E. coli; table 4 (BB-S 525), E. coli Juhl, read-out: MIC) was 0.2 µg/mL (≈ 0.334 µM). The MIC (E. coli; table 4 (BB-S 525), E. coli NIHJ, read-out: MIC) was 0.1 µg/mL (≈ 0.167 µM), the MIC (E. coli; table 4 (BB-S 525), E. coli, strain not given, 1st line, read-out: MIC) was 0.1 µg/mL (≈ 0.167 µM) and the MIC (E. coli; table 4 (BB-S 525), E. coli, strain not given, 2nd line, read-out: MIC) was 0.05 µg/mL (≈ 0.0834 µM). For the same compound, the MIC (E. coli; table 4 (BB-S 525), E. coli, strain not given, 3rd line, read-out: MIC) was 3.1 µg/mL (≈ 5.17 µM), the MIC (Kl. pneumoniae; table 2 (BB-S493), Kl. pneumoniae A9678) was 0.4 µg/mL (≈ 0.667 µM) and the MIC (Kl. pneumoniae; table 2 (BB-S493), Kl. pneumoniae A9867) was 0.1 µg/mL (≈ 0.167 µM). The MIC (Kl. pneumoniae; table 2 (BB-S493), Kl. pneumoniae A9977) was 0.1 µg/mL (≈ 0.167 µM), the MIC (Kl. pneumoniae; table 2 (BB-S493), Kl. pneumoniae A15130) was 0.1 µg/mL (≈ 0.167 µM) and the MIC (Kl. pneumoniae; table 4 (BB-S 525), Kl. pneumoniae, 1st line) was 0.8 µg/mL (≈ 1.33 µM). For the same compound, the MIC (Kl. pneumoniae; table 4 (BB-S 525), Kl. pneumoniae, 2nd line) was 0.1 µg/mL (≈ 0.167 µM), the MIC (Kl. pneumoniae; table 4 (BB-S 525), Kl. pneumoniae, 3rd line) was 0.2 µg/mL (≈ 0.334 µM) and the MIC (Kl. pneumoniae; table 4 (BB-S 525), Kl. pnuemoniae, 4th line) was 0.2 µg/mL (≈ 0.334 µM). For the same compound, the MIC (Sal. typhosa; table 2 (BB-S493), Sal. typhosa A9498) was 0.05 µg/mL (≈ 0.0834 µM), the MIC (Sal. typhosa; table 4 (BB-S 525), Sal. typhosa) was 0.1 µg/mL (≈ 0.167 µM) and the MIC (Shig. flexneri; Shigella flexneri, table 2 (BB-S493), Shig. flexneri A9684, read-out: MIC) was 12.5 µg/mL (≈ 20.8 µM). The MIC (Shig. flexneri; table 4 (BB-S 525), Shig. flexneri) was 12.5 µg/mL (≈ 20.8 µM), the MIC (Shig. sonnei; table 2 (BB-S493), Shig. sonnei A9516) was 0.025 µg/mL (≈ 0.0417 µM) and the MIC (Shig. sonnei; table 4 (BB-S 525), Shig. sonnei) was 0.1 µg/mL (≈ 0.167 µM). For the same compound, the MIC (S. aureus; table 2 (BB-S493), S. aureus A9497) was 0.1 µg/mL (≈ 0.167 µM), the MIC (S. aureus; table 2 (BB-S493), S. aureus BX-1633 A9606) was 0.4 µg/mL (≈ 0.667 µM) and the MIC (S. aureus; table 2 (BB-S493), S. aureus Smith A9537) was 0.4 µg/mL (≈ 0.667 µM). The MIC (S. aureus; table 4 (BB-S 525), S. aureus (strain not given)) was 0.2 µg/mL (≈ 0.334 µM), the MIC (S. aureus; table 4 (BB-S 525), S. aureus BX-1633) was 0.8 µg/mL (≈ 1.33 µM) and the MIC (S. aureus; table 4 (BB-S 525), S. aureus Smith) was 0.4 µg/mL (≈ 0.667 µM). For the same compound, the MIC (E. coli (sensitive)) was 0.2 µg/mL (≈ 0.334 µM), the MIC [2] was 2.1 µg/mL (≈ 3.5 µM) and the MIC (B. anthracis; table 2 (BB-S493), B. anthracis A9504) was 0.025 µg/mL (≈ 0.0417 µM). For the same compound, the MIC (B. anthracis; table 4 (BB-S 525), B. anthracis) was 0.2 µg/mL (≈ 0.334 µM), the MIC (Providencia sp.) was 4.2 µg/mL (≈ 7 µM) and the MIC (S. aureus (sensitive)) was 0.3 µg/mL (≈ 0.5 µM). The MIC [3] was 2.6 µg/mL (≈ 4.34 µM), the MIC (Pr. mirabilis; table 2 (BB-S493), Pr. mirabilis A9554) was 0.1 µg/mL (≈ 0.167 µM) and the MIC (Pr. mirabilis; table 2 (BB-S493), Pr. mirabilis A9900) was 0.1 µg/mL (≈ 0.167 µM). The MIC (Pr. mirabilis; table 4 (BB-S 525), Pr. mirabilis, 1st line) was 0.1 µg/mL (≈ 0.167 µM), the MIC (Pr. mirabilis; table 4 (BB-S 525), Pr. mirabilis, 2nd line) was 0.1 µg/mL (≈ 0.167 µM) and the MIC (Proteus (indole +)) was 0.2 µg/mL (≈ 0.334 µM). It also gave an MIC (D. pneumoniae) of 0.04 µg/mL (≈ 0.0667 µM), an MIC (Shig. dysenteriae; table 2 (BB-S493), Shig dysenteriae) of 0.025 µg/mL (≈ 0.0417 µM) and an MIC (Shig. dysenteriae; table 4 (BB-S 525), Shig. dysenteriae) of 0.1 µg/mL (≈ 0.167 µM). For the same compound, the MIC (Klebsiella sp.) was 0.6 µg/mL (≈ 1 µM), the MIC (S. marcescens) was 35 µg/mL (≈ 58.4 µM) and the MIC [4] was 0.9 µg/mL (≈ 1.5 µM). For the same compound, the ED50 (S. aureus Smith; Staphylococcus aureus, read-out: PD50) was 0.16 mg/kg, the PD50 (S. aureus Smith) was 0.12 mgm./kg. and 0.2 mgm./kg and the MIC (Ps. aeruginosa; Pseudomonas aeruginosa, table 2 (BB-S493), Ps. aeruginosa A9843, read-out: MIC) was greater than 100 µg/mL. The MIC (Ps. aeruginosa; table 2 (BB-S493), Ps. aerugionsa A9930) was greater than 100 µg/mL, the MIC (Ps. aeruginosa; table 4 (BB-S 525), Ps. aeruginosa, 1st line) was greater than 100 µg/mL and the MIC (Ps. aeruginosa; table 4 (BB-S 525), Ps. aeruginosa, 2nd line) was greater than 100 µg/mL.
